Residues, ends and D or L forms follow the SMILES beside them.
How the values were obtained:
ALS patients [1] = experiment: Open-label Phase 1/2a clinical trial, safety and tolerability (adverse events); format: in vivo, human; conditions: eight patients, IV daily, 1.7 mg/kg escalated to 3.2 mg/kg
Protocol: Dose-limiting Toxicity (DLT): DLT is defined as a ≥Grade 3 per subject which is IPL344 drug-related adverse event (using CTCAE Version v.4.03) occurring at any dosing, excluding: • Grade 3 adverse event of hypersensitivity (defined as sinus tachycardia, heavy breathing or rash along the veins or elsewhere) • A transient (resolving within 6 hours of onset) Grade 3 study drug-related adverse event.
Adverse events (AE)—The FDA defines an AE as “any untoward medical occurrence associated with the use of a drug in humans, whether or not considered drug related” (US Department of Health and Human Services, December 2012). Medical conditions present before first administration of IPL344 are considered pre-existing conditions and are documented as medical history. A new condition, event or the worsening of a pre-existing condition is considered an AE from the first dose of administration.
AEs are coded by CTCAE Version v4.03.
Safety Analysis: The Safety population is based on participants having received at least one dose of IPL-344 (exposed population), including participants prematurely withdrawn. AEs are classified by system-organ class and preferred term and then summarized by number and percentage of participants experiencing AEs. […] The IPL344 DLT and maximal tolerated dose (MTD) are assessed and presented. […]

ALS patients [2] = conditions: estimated moderate effect; cited from earlier work

| SMILES | Safety and tolerability profile (ALS patients [1]; 28 days safety study) | Drug-related adverse events (ALS patients [1]) | Extension in patient survival (ALS patients [2]) |
| --- | --- | --- | --- |
| CC(C)C[C@H](NC(=O)[C@@H]1CCCN1C(=O)[C@@H]1CCCN1C(=O)[C@@H](N)CC(C)C)C(=O)N1CCC[C@H]1C(=O)N[C@@H](Cc1ccc(O)cc1)C(=O)N1CCC[C@H]1C(=O)O [IPL344, LPPLPYP] (H-LPPLPYP-OH) | favorable safety and tolerability profile | No drug-related adverse events |  |
| CC1=NN(c2ccccc2)C(=O)C1 [edaravone] |  |  | three months extension in patient survival |
